US11040036B2, “Pyruvate kinase activators for use in treating blood disorders” (Agios Pharmaceuticals, Inc., priority 2017, dated 2021)

Experiments:
wild type PKR [1] = target: T1, wild type PKR (Homo sapiens, UniProt P30613); assay: PKR mutant assay (AC50), wild type PKR; assay type: biochemical; settings: wild type PKR enzyme; read-out: PKR WT AC50
Method: (§1) Example 11. PKR Mutant Assay
(§2) PKR or PKR mutant enzyme solution was diluted into a reaction mix, which contains 1× buffer (100 mM KCl, 50 mM Tris pH 7.5, 5 mM MgCl2) as well as PEP (cont depends on enzyme), 180 μM NADH, 0.5 units LDH, 1 mM DTT, 0.03% BSA; final assay concentrations after 1.11 fold dilution are indicated.
(§3) 2 μL of test compound was added into wells first, and then 180 μL reaction mix was added.
(§4) Reactions mixture with test compound was assembled except for ADP, and plates were stored for 60 minutes at room temperature.
(§5) 20 uL ADP was added to start reaction at room temperature and reaction progress was measured as changes in absorbance at 340 nm wavelength at room temperature.
(§6) Test Compound Preparation:
(§7) Test compound stock was made at 100× concentration in 100% DMSO (10 mM)
(§8) 1 to 3 dilutions were made for 11 points (i.e. 50 μl of first concentration added to 100 μl 100% DMSO to yield 3.33 mM, 50 μl of this added to 100 μl DMSO to yield 1.11 mM, and so forth) • 1 to 100 dilution into assay (2 μl in 200 μl) yielded starting concentration of 100 μM, decreasing 3 fold for 11 points.
(§9) Assay Buffer: 100 mM KCl, 50 mM Tris 7.5, 5 mM MgCl2, 1 ruM DTT, 0.03% BSA
(§10) Reaction Mixture: PKR mutant enzyme: 40-400 ng/well; ADP: 0.2-1.65 mM; PEP: 0.1-0.5 mM; NADH:180 μM; LDH: 0.5 units (Sigma #59023); DTT: 1 mM; BSA: 0.03%.

PKR K410E = PKR K410E (Homo sapiens, UniProt P30613, K410E); assay: PKR mutant assay (AC50), PKR K410E; assay type: biochemical; settings: PKR K410E mutant enzyme
Chain of PKR K410E (P30613 whole entry K410E): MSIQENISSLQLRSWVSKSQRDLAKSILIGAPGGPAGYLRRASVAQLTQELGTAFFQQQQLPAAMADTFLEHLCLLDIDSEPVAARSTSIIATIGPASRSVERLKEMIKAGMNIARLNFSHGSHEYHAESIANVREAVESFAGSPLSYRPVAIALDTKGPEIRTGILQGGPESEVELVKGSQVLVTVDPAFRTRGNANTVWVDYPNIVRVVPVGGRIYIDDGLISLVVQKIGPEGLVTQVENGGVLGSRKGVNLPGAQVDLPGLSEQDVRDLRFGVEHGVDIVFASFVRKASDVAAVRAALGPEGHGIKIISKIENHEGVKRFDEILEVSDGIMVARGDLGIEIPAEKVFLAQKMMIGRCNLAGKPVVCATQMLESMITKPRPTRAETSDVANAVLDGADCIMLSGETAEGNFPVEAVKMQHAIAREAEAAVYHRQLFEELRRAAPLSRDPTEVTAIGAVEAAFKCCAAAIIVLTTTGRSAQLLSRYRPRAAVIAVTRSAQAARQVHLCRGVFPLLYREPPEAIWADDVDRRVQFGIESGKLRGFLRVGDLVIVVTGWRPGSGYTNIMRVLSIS
Method: as §1, §2, §3, §4, §5, §6, §7, §8, §9, §10

PKR R510Q = PKR R510Q (Homo sapiens, UniProt P30613, R510Q); assay: PKR mutant assay (AC50), PKR R510Q; assay type: biochemical; settings: PKR R510Q mutant enzyme; read-out: PK R510Q AC50
Chain of PKR R510Q (P30613 whole entry R510Q): as the sequence (P30613 whole entry K410E) above, with E410K, R510Q counted along it
Method: as §1, §2, §3, §4, §5, §6, §7, §8, §9, §10

wild type PKR [2] = target: T1, wild type PKR; assay: Cell based ATP assay in purified red blood cells; design: endogenous in cells; host or cells: purified red blood cells from blood of healthy volunteers; settings: RBCs, overnight at 37° C., ATP levels by Cell-Titer-Glo
Method: Example 16. Red Blood Cell (RBC) Purification
Fresh blood drawn from healthy volunteers into K2EDTA tubes was collected. Whole blood was pelleted by spinning at 500 g for 10 minutes. Cut transfusion bag port off of Purecell leukocyte reduction neofilter (Fisher NCO267633) one (1) inch above filter. Attach a 10 ml syringe barrel to the remaining cut tubing attached to neofilter. The plasma layer was removed from the pellet of the whole blood and the pellet was resuspended in 2× volume of phosphate buffered saline (PBS). Transfer 9 ml re-suspended blood cell pellet to prepared 10 ml syringe that is attached to the neofilter. Allow whole blood to gravity flow through filter until all fluid runs through upper tubing into filter disc. Add plunger to the syringe, remove syringe from clamp and invert the filter, then plunge air through the syringe filter system. Using a new 5 ml syringe, remove filtered RBCs from the bag by the syringe port and transfer purified RBCs to a 5 ml snap cap tube that has been incubated on ice. Spin 5 ml snap cap tube at 500 g for 10 minutes at 15 C, aspirate supernatant and resuspend in AGAM (1×PBS, 1% glucose, 170 mg/L adenine, 5.25 g/L mannitol) at a density of 4×10^9 cells/mL.
Example 17. Cell Based ATP Assay
For cell based ATP assays, the compound as described herein was prepared in 100% DMSO as a 10 mM stock. Serial dilutions (1:4) were performed in 96-well V-bottom storage plate and then added 1:100 to 96-well V-bottom plates containing AGAM. RBCs were diluted in AGAM media to a density of 1×10^7 cells/mL before added 90 μL/well to black clear bottom assay plates (final compound concentration at 0.1% DMSO concentration). Assay plates were sealed using aluminum foil seals and incubated overnight at 37° C. in a humidified chamber. ATP levels were read out using Cell-Titer-Glo (Promega).

T1 sequence (P30613 whole entry): as the sequence (P30613 whole entry K410E) above, with E410K counted along it

Compound	AC50 (wild type PKR [1]) [µM]	AC50 (PKR K410E) [µM]	AC50 (PKR R510Q) [µM]	AC50 (wild type PKR [2]) [µM]
Cn1c2nc(Cc3cc[nH]n3)sc2c2cnn(Cc3cc[nH]c(=O)c3)c(=O)c21	< 0.3	< 0.3	0.301 to 0.8	≤ 1
Cn1ccc(Cc2nc3c(s2)c2cnn(Cc4c[nH]nn4)c(=O)c2n3C)n1	< 0.3	< 0.3	< 0.3	≤ 1
Cn1ccc(Cc2nc3c(s2)c2cnn(Cc4ccn(C)n4)c(=O)c2n3C)n1	< 0.3	< 0.3	< 0.3	≤ 1
Cn1c2nc(Cn3cc[nH]c3=O)sc2c2cnn(Cc3cc[nH]n3)c(=O)c21	< 0.3	< 0.3	< 0.3	≤ 1
Cn1c2nc(Cc3cc[nH]n3)sc2c2cnn(Cc3ccc[nH]c3=O)c(=O)c21	< 0.3	< 0.3	< 0.3	≤ 1
COc1ncccc1Cn1ncc2c3sc(Cc4cc[nH]n4)nc3n(C)c2c1=O	< 0.3	< 0.3	< 0.3	≤ 1
CC(=O)Nc1ccc(F)c(Cn2ncc3c4sc(Cc5cc[nH]n5)nc4n(C)c3c2=O)n1	> 0.8	> 0.8	< 0.3	> 1
COc1ccc(Cn2ncc3c4sc(Cc5cc[nH]n5)nc4n(C)c3c2=O)cn1	< 0.3	< 0.3	< 0.3	≤ 1
COc1cc(Cn2ncc3c4sc(Cc5cc[nH]n5)nc4n(C)c3c2=O)ccn1	< 0.3	< 0.3	< 0.3	≤ 1
CNc1ccc(F)c(Cn2ncc3c4sc(Cc5cc[nH]n5)nc4n(C)c3c2=O)n1	< 0.3	< 0.3	< 0.3	≤ 1
CNc1ccc(F)c(Cc2nc3c(s2)c2cnn(Cc4c[nH]nn4)c(=O)c2n3C)n1	< 0.3	< 0.3	< 0.3	≤ 1
Cn1c2nc(Cc3n[nH]cc3F)sc2c2cnn(Cc3n[nH]cc3F)c(=O)c21	< 0.3	< 0.3	< 0.3	≤ 1
COc1cccc(Cn2ncc3c4sc(Cc5cc[nH]n5)nc4n(C)c3c2=O)n1	< 0.3	< 0.3	< 0.3	≤ 1
Cn1c2nc(Cc3cc[nH]n3)sc2c2cnn(Cc3cccc(NO)n3)c(=O)c21	< 0.3	< 0.3	< 0.3	≤ 1
Cn1c2nc(Cc3cc[nH]n3)sc2c2cnn(Cc3cc(F)cc(N)n3)c(=O)c21	< 0.3	< 0.3	< 0.3	≤ 1
Cc1ccc(Cn2ncc3c4sc(Cc5cc[nH]n5)nc4n(C)c3c2=O)nc1N	< 0.3	< 0.3	< 0.3	≤ 1
Cn1c2nc(Cc3ccccn3)sc2c2cnn(Cc3ccccn3)c(=O)c21	< 0.3	< 0.3	0.301 to 0.8	≤ 1
Cn1c2nc(Cc3cc[nH]n3)sc2c2cnn(Cc3cccc(=O)[nH]3)c(=O)c21	< 0.3	< 0.3	0.301 to 0.8	> 1
Cn1c2nc(Cc3n[nH]cc3F)sc2c2cnn(Cc3c[nH]nn3)c(=O)c21	< 0.3	< 0.3	< 0.3	≤ 1
Cn1c2nc(Cn3ccc(N)n3)sc2c2cnn(Cc3cc[nH]n3)c(=O)c21	< 0.3	< 0.3	< 0.3	≤ 1
Cn1cc(F)c(Cn2ncc3c4sc(Cc5cc[nH]n5)nc4n(C)c3c2=O)n1	< 0.3	< 0.3	< 0.3	≤ 1
